Experiment [1] addresses T1, ornithine aminotransferase (OAT) (Mesocricetus auratus, UniProt A0A1U7QEB0).
T1 construct: Assays (including the initial assays) were conducted utilizing excised hamster flank organ follicles; from tissue; host or cells: hamster flank organ hair follicles, minced, sonicated and centrifuged; supernatant assayed
T1 sequence (A0A1U7QEB0 1-439): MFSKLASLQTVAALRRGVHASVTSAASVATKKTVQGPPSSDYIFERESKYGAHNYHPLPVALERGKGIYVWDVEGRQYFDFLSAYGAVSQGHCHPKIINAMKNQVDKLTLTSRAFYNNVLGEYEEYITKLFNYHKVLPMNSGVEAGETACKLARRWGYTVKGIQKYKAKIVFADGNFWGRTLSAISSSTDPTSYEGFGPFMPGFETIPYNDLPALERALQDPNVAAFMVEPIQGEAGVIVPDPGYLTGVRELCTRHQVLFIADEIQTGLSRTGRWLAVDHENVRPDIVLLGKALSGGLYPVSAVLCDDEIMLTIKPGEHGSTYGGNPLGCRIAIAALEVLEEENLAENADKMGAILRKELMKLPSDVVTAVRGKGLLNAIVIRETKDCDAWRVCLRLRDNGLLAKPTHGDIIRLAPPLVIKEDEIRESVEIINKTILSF
Kind of experiment: OAT activity assay in hair follicles (P5C formation, HPLC of DHQ). The experiment is classed as biochemical, hamster. On the procedure: The following assay for OAT activity based on the procedure of O'Donnell et al., Analytical Biochemistry 90, 41-46 (1978) was adapted for OAT measurements in hair follicles, and can be used to evaluate the effectiveness of OAT inhibitors in reducing OAT activity.
The product of OAT activity, pyrroline-5-carboxylic acid (P5C), was measured by reverse-phase HPLC analysis of dihydroquinazolium ion (DHQ). DHQ is a reaction product of PSC and o-aminobenzylaldehyde (OAB). The analysis was performed with a Waters 490 UV detector. The amount of DHQ formed was directly proportional to the concentration of P5C. The sensitivity of the Waters 490 UV detector had been determined to be above 100 picomoles of PSC injected and was reasonably linear.
Initial assays of flank organ follicle OAT activity were conducted employing saturating doses of ornithine (350 mM). The OAT mediated conversion of ornithine to P5C was monitored by measuring in vitro PSC formation, resulting in time and concentration dependent increases in PSC.
Assays (including the initial assays) were conducted utilizing excised hamster flank organ follicles. The excised hamster follicles were diluted in assay buffer (2 follicles/300 μl) and then were minced with scissors and homogenized with a sonicator. The resultant homogenate was centrifuged to obtain a cytosolic supernatant which was assayed for OAT. Samples were incubated for one hour with either Gabaculin, L-Canaline, or 5-FMOrn at 1 mM, 100 μM, 10 μM, and 1 μM concentrations. The concentration of P5C was then assayed.

In another experiment the test system is flank organs hair growth. As to the kind of experiment: Golden Syrian hamster assay (flank organ hair mass). In kind it is in vivo. The conditions noted are these: topical, thirteen applications; for Treated (hair mass, mean ± SEM): treated flank organ. The source says:
Male intact Golden Syrian hamsters are considered acceptable models for human beard hair growth in that they display oval shaped flank organs, one on each side, each about 8 mm. in major diameter, which grow thick black and coarse hair similar to human beard hair. These organs produce hair in response to androgens in the hamster. To evaluate the effectiveness of a particular OAT inhibitor, the flank organs of each of a group of hamsters are depilated by applying a thioglycolate based chemical depilatory (Surgex). To one organ of each animal 10-25 μl. of vehicle alone once a day is applied, while to the other organ of each animal an equal amount of vehicle containing an OAT inhibitor is applied. After thirteen applications (one application per day for five days a week), the flank organs are shaved and the amount of recovered hair (hair mass) from each is weighed. Percent-reduction of hair growth is calculated by subtracting the hair mass (mg) value of the test compound treated side from the hair mass value of the vehicle treated side; the delta value obtained is then divided by the hair mass value of the vehicle treated side, and the resultant number is multiplied by 100.
The above-described assay will be referred to herein as the "Golden Syrian hamster" assay. Preferred compositions provide an reduction in hair growth of at least about 35%, more preferably at least about 50%, and most preferably at least about 70% when tested in the Golden Syrian hamster assay.
The vehicle used in the compositions tested was 68% deionized water, 16% absolute ethanol, 5% propylene glycol, 5% dipropylene glycol, 4% benzoyl alcohol, and 2% propylene carbonate.

The mark [2] stands for this setting: 10 μM, one hour incubation, flank organ follicle supernatant.
[3] abbreviates: 100 μM, one hour incubation, flank organ follicle supernatant, read-out: Percent Inhibition (OAT).

Like-named read-outs stand apart in the source and are kept apart here.

Regarding `NC(CF)CCC(N)C(=O)O` (stereo not shown) [5-FMOrn, 6-fluoro-2,5-diaminohexanoic acid], the “nm P5C formed/fol/1 hr” value in experiment [1] (1 μM, one hour incubation) was 31.419 nm P5C formed/fol/1 hr; in experiment [1] (10 μM, one hour incubation), 29.327 nm P5C formed/fol/1 hr; in experiment [1] (100 μM, one hour incubation) it was 19.562 nm P5C formed/fol/1 hr; in experiment [1] (1 mM, pH = 7.5, one hour incubation), 3.334 nm P5C formed/fol/1 hr. Moreover, the “Percent Inhibition (OAT)” value in experiment [1] (1 μM, one hour incubation, flank organ follicle supernatant) is “No OAT inhibition and none”; in experiment [1] (setting [2]) it was “No OAT inhibition and none”; in experiment [1] (1 mM, pH = 7.5, one hour incubation, flank organ follicle supernatant), 83.036%. The inhibition at 100 µM in experiment [1] (read-out: Percent Inhibition (OAT), 100 μM, one hour incubation, flank organ follicle supernatant) amounted to 0.471%. Also, in experiment [1] (read-out: Percent Inhibition (OAT), 1 mM, pH = 7.5, one hour incubation, flank organ follicle supernatant), the inhibition at 1000 µM is 83%. Moreover, the “% Reduction (of hair growth, mean ± SEM)” value in the experiment on flank organs hair growth (5% in vehicle) was found to be 66.02 ± 6.30%; in the experiment on flank organs hair growth (15% in vehicle), 84.55 ± 2.47%. The “Treated (hair mass, mean ± SEM)” value with flank organs hair growth (5% in vehicle) was “.616 ± .15 mg”; in the experiment with flank organs hair growth (15% in vehicle), “.322 ± .07 mg”.

For the compound `NOCC[C@H](N)C(=O)O` [Canaline, (S)-2-amino-4-amino-oxybutyric acid], the “nm P5C formed/fol/1 hr” value in experiment [1] (1 μM, one hour incubation) came to 29.859 nm P5C formed/fol/1 hr; in experiment [1] (10 μM, one hour incubation), 24.096 nm P5C formed/fol/1 hr; in experiment [1] (100 μM, one hour incubation), 14.612 nm P5C formed/fol/1 hr. The “Percent Inhibition (OAT)” value in experiment [1] (1 μM, one hour incubation, flank organ follicle supernatant, listed as L-Canaline) is “no inhibition and none”; in experiment [1] (10 μM, one hour incubation, flank organ follicle supernatant, listed as L-Canaline), “no inhibition and none”; in experiment [1] (100 μM, one hour incubation, flank organ follicle supernatant, listed as L-Canaline) it was 25.653%. Besides, the inhibition at 100 µM in experiment [1] (setting [3]) is 25%. Besides, the inhibition at 1000 µM in experiment [1] (1 mM, pH = 7.5, one hour incubation, flank organ follicle supernatant, read-out: Percent Inhibition (OAT)) is 100%. Also, the “% Reduction (of hair growth, mean ± SEM)” value with flank organs hair growth (2% in vehicle) is 20.99 ± 7.70%; with flank organs hair growth (10% in vehicle), 44.50 ± 7.40%. Besides, the “Treated (hair mass, mean ± SEM)” value in the experiment with flank organs hair growth (2% in vehicle) was 1.553 ± .20 mg; with flank organs hair growth (10% in vehicle), “.790 ± .11 mg”.

For `NC1C=CC=C(C(=O)O)C1` (stereo not shown) [Gabaculin, 3-amino-2,3-dihydrobenzoic acid], the “nm P5C formed/fol/1 hr” value is 19.637 nm P5C formed/fol/1 hr in experiment [1] (1 μM, one hour incubation) and 5.057 nm P5C formed/fol/1 hr in experiment [1] (10 μM, one hour incubation). In experiment [1] (1 μM, one hour incubation, flank organ follicle supernatant, read-out: Percent Inhibition (OAT)), the inhibition at 1 µM was found to be 0.089%. For the same compound, in experiment [1] (setting [2]), the “Percent Inhibition (OAT)” value was 74.268%. For the same compound, the inhibition at 10 µM in experiment [1] (10 μM, one hour incubation, flank organ follicle supernatant, read-out: Percent Inhibition (OAT)) worked out at 75%. Moreover, in experiment [1] (setting [3]), the inhibition at 100 µM is 100%. Moreover, in experiment [1] (1 mM, one hour incubation, flank organ follicle supernatant, read-out: Percent Inhibition (OAT)), the inhibition at 1000 µM amounted to 100%. Further, the “relative potency as OAT inhibitor” value in experiment [1] (comparison of Gabaculin, L-Canaline and 5-FMOrn) was “most potent inhibitor”. For the same compound, the “% Reduction (of hair growth, mean ± SEM)” value with flank organs hair growth (10% in vehicle) was 43.06 ± 2.72%; with flank organs hair growth (25% in vehicle), 48.08 ± 5.00%. For the same compound, the “Treated (hair mass, mean ± SEM)” value is on record as 1.365 ± .14 mg in the experiment on flank organs hair growth (10% in vehicle) and 1.266 ± .11 mg in the experiment with flank organs hair growth (25% in vehicle).
